# ChEMBL document CHEMBL1153387 (J Med Chem, 2009)
# The source made the active and inactive calls. The rule behind the calls is not given here. Starred links: 1 amine or outer side, 2 acyl side, 3 side chain; linkers in the order of their positions; H or OH if unused. Non-standard residues stand in square brackets, D forms with d. Residues, ends and D or L forms follow the SMILES beside them. *: point of attachment. NMeβ3hLys = CN([C@@H](CCCCN)CC(=O)[*:2])[*:1]; Pentanoyl(5-guanidino) = NC(N)=NCCCCC(=O)*; X1 = [N-]=[N+]=N[C@@H](CCCNC(=N)N)C(=O)*; NMeR = CN[C@@H](CCCNC(=N)N)C(=O)O; αMeR = C[C@](N)(CCCNC(=N)N)C(=O)O; Tle = CC(C)(C)[C@H](N)C(=O)O; β3hK = NCCCC[C@H](N)CC(=O)O; Ahp = NCCCCCCC(=O)O
# Tests used:
# [1] = Metabolic stability in rat serum assessed as half time of disappearance at 1 mM by MALDI-TOF mass spectrometry assay; format: ADME, cell-free; details: read-out: T50
# Serum [2] = assay: Metabolic stability in human serum assessed as compound degradation rate at 1 mM by MALDI-TOF mass spectrometry assay; format: ADME, cell-free; details: 1000 µM
# [3] = Metabolic stability in human serum assessed as half time of disappearance at 1 mM by MALDI-TOF mass spectrometry assay; format: ADME, cell-free; details: read-out: T50
# Serum [4] = assay: Metabolic stability in rat serum assessed as compound degradation rate at 1 mM by MALDI-TOF mass spectrometry assay; format: ADME, cell-free; details: 1000 µM
# Rattus norvegicus [5] = assay: Hypothermic activity in Sprague-Dawley rat assessed as decrease in core body temperature at 5 mg/kg, ip at time of maximal body temperature decrease; format: functional; details: route intraperitoneal
# Rattus norvegicus [6] = assay: Hypothermic activity in Sprague-Dawley rat assessed as time duration of maximal body temperature decrease at 5 mg/kg, ip; format: functional; details: route intraperitoneal
# [7] = target: T1, Neurotensin receptor type 1 (Homo sapiens, UniProt P30989); assay: Displacement of [125I]I-Tyr(3)NT from human NTR1
# [8] = target: T1, Neurotensin receptor type 1; assay: Agonist activity at NTR1 in human HT-29 cells assessed as increase in intracellular calcium concentration by FLIPR assay; format: functional, cell-based
# [9] = target: T1, Neurotensin receptor type 1; assay: Agonist activity at NTR1 in human HT-29 cells assessed as increase in intracellular calcium concentration in presence of NTR1 antagonist SR-48692 by FLIPR assay; format: functional, cell-based
# [10] = target: T1, Neurotensin receptor type 1; assay: Binding affinity to human NTR1
# T1 sequence (P30989 whole entry): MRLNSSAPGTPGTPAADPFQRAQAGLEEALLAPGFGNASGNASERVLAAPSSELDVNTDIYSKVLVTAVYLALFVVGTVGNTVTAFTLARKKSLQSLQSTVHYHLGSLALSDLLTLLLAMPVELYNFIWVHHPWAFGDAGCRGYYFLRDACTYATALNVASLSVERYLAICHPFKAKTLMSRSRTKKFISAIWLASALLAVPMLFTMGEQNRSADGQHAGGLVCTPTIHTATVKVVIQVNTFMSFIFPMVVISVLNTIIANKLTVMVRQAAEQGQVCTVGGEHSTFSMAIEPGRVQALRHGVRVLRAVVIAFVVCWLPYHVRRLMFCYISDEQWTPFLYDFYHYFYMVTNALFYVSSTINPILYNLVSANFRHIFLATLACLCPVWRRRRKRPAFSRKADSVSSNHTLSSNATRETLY
half-life at 1000 µM [1],Activity (Serum [2]),half-life at 1000 µM [3],Activity (Serum [4]),IC50 [7],Ki [7],EC50 [8],Activity [9],Compound,Activity (Rattus norvegicus [5]),Time (Rattus norvegicus [6]),Ki [10]
0.167 h,29.6 µmol/min,0.282 h,49.8 µmol/min,–,–,–,–,CC[C@H](C)[C@H](NC(=O)[C@H](Cc1ccc(O)cc1)NC(=O)[C@@H]1CCCN1C(=O)[C@H](CCCNC(=N)N)NC(=O)[C@@H](N)CCCNC(=N)N)C(=O)N[C@@H](CC(C)C)C(=O)O,–,–,–
4.33 h,0.593 µmol/min,14 h,1.92 µmol/min,0.000383 µM,0.00029 µM,0.000853 µM,–,CC[C@@H](C)[C@H](NC(=O)[C@H](Cc1ccc(O)cc1)NC(=O)[C@@H]1CCCN1C(=O)[C@H](CCCNC(=N)N)NC(=O)[C@H](CCCNC(=N)N)NC)C(=O)N[C@@H](CC(C)C)C(=O)O,-1.55 °C,120 min,–
3.65 h,0.444 µmol/min,18.8 h,2.28 µmol/min,–,–,–,–,CC[C@@H](C)[C@H](NC(=O)[C@H](Cc1ccc(O)cc1)NC(=O)[C@@H]1CCCN1C(=O)[C@H](CCCNC(=N)N)NC(=O)[C@@](C)(N)CCCNC(=N)N)C(=O)N[C@@H](CC(C)C)C(=O)O,-0.28 °C,150 min,–
2.35 h,1.65 µmol/min,5.05 h,3.53 µmol/min,0.00097 µM,0.00073 µM,0.00078 µM,–,CC[C@@H](C)[C@H](NC(=O)[C@H](Cc1ccc(O)cc1)NC(=O)[C@@H]1CCCN1C(=O)[C@H](CCCN=C(N)N)NC(=O)[C@H](CCCN=C(N)N)N=[N+]=[N-])C(=O)N[C@@H](CC(C)C)C(=O)O,–,–,–
94.3 h,0.068 µmol/min,124 h,0.089 µmol/min,0.863 µM,0.647 µM,0.764 µM,–,CC(=O)N[C@@H](CCCNC(=N)N)C(=O)N[C@@H](CCCCN)C(=O)N1CCC[C@H]1C(=O)N[C@@H](Cc1c[nH]c2ccccc12)C(=O)N[C@H](C(=O)N[C@@H](CC(C)C)C(=O)O)C(C)(C)C (Ac-RKPW[Tle]L-OH),-4.3 °C,270 min,–
57 h,0.153 µmol/min,54.5 h,0.146 µmol/min,0.181 µM,0.136 µM,0.0577 µM,–,CC(=O)N[C@@H](CCCCN)CC(=O)N[C@@H](CCCN=C(N)N)C(=O)N1CCC[C@H]1C(=O)N[C@@H](Cc1ccc(O)cc1)C(=O)N[C@H](C(=O)N[C@@H](CC(C)C)C(=O)O)C(C)(C)C (Ac-[β3hK]RPY[Tle]L-OH),–,–,–
0.225 h,31.8 µmol/min,0.263 h,37 µmol/min,0.403 µM,0.303 µM,0.217 µM,–,CC(C)C[C@H](NC(=O)[C@@H](NC(=O)[C@H](Cc1c[nH]c2ccccc12)NC(=O)[C@@H]1CCCN1C(=O)[C@H](CCCCN)NC(=O)[C@@H](N)CCCN=C(N)N)C(C)(C)C)C(=O)O (H-RKPW[Tle]L-OH),–,–,–
74.8 h,0.204 µmol/min,41 h,0.111 µmol/min,0.00399 µM,0.00299 µM,0.0258 µM,–,CC(C)C[C@H](NC(=O)[C@@H](NC(=O)[C@H](Cc1ccc(O)cc1)NC(=O)[C@@H]1CCCN1C(=O)[C@H](CCCNC(=N)N)NC(=O)CCCCCCN)C(C)(C)C)C(=O)O (H-[Ahp]RPY[Tle]L-OH),-2.58 °C,90 min,–
87.8 h,0.064 µmol/min,132 h,0.095 µmol/min,2.9 µM,2.17 µM,1.86 µM,–,CC(C)C[C@H](NC(=O)[C@@H](NC(=O)[C@H](Cc1c[nH]c2ccccc12)NC(=O)[C@@H]1CCCN1C(=O)[C@H](CCCCN)NC(=O)[C@@](C)(N)CCCNC(=N)N)C(C)(C)C)C(=O)O (H-[αMeR]KPW[Tle]L-OH),-4.28 °C,120 min,–
0.21 h,33.4 µmol/min,0.25 h,39.9 µmol/min,0.0108 µM,0.00807 µM,0.00621 µM,inactive,CC(C)C[C@H](NC(=O)[C@@H](NC(=O)[C@H](Cc1ccc(O)cc1)NC(=O)[C@@H]1CCCN1C(=O)[C@H](CCCNC(=N)N)NC(=O)C[C@@H](N)CCCCN)C(C)(C)C)C(=O)O (H-[β3hK]RPY[Tle]L-OH),-1.53 °C,90 min,–
71.8 h,0.146 µmol/min,57.2 h,0.117 µmol/min,0.027 µM,0.0203 µM,0.00796 µM,–,CN[C@@H](CCCCN)CC(=O)N[C@@H](CCCN=C(N)N)C(=O)N1CCC[C@H]1C(=O)N[C@@H](Cc1ccc(O)cc1)C(=O)N[C@H](C(=O)N[C@@H](CC(C)C)C(=O)O)C(C)(C)C (NMeβ3hLys-RPY[Tle]L-OH),–,–,–
67.8 h,0.07 µmol/min,120 h,0.123 µmol/min,0.14 µM,0.105 µM,0.151 µM,inactive,CC(C)C[C@H](NC(=O)[C@@H](NC(=O)[C@H](Cc1c[nH]c2ccccc12)NC(=O)[C@@H]1CCCN1C(=O)[C@H](CCCCN)NC(=O)[C@H](CCCNC(=N)N)N=[N+]=[N-])C(C)(C)C)C(=O)O (X1-KPW[Tle]L-OH),-4.29 °C,240 min,–
108 h,0.081 µmol/min,103 h,0.078 µmol/min,0.842 µM,0.631 µM,0.783 µM,–,CC(C)C[C@H](NC(=O)[C@@H](NC(=O)[C@H](Cc1c[nH]c2ccccc12)NC(=O)[C@@H]1CCCN1C(=O)[C@H](CCCCN)NC(=O)CCCCNC(=N)N)C(C)(C)C)C(=O)O ({Pentanoyl(5-guanidino)}-KPW[Tle]L-OH),-5.02 °C,240 min,–

# More lines, now with the values behind:
Compound,half-life at 1000 µM [1],Activity (Serum [2]),half-life at 1000 µM [3],Activity (Serum [4]),IC50 [7],Ki [7],EC50 [8],Activity [9],Activity (Rattus norvegicus [5]),Time (Rattus norvegicus [6]),Ki [10]
CC[C@H](C)[C@H](NC(=O)[C@H](Cc1ccc(O)cc1)NC(=O)[C@@H]1CCCN1C(=O)[C@H](CCCN=C(N)N)NC(=O)[C@@H](N)CCCN=C(N)N)C(=O)N[C@@H](CC(C)C)C(=O)O,–,–,–,–,–,–,–,–,-0.55 °C,300 min,–
CC[C@H](C)[C@H](NC(=O)[C@H](Cc1ccc(O)cc1)NC(=O)[C@@H]1CCCN1C(=O)[C@H](CCCNC(=N)N)NC(=O)[C@H](CCCNC(=N)N)NC(C)=O)C(=O)N[C@@H](CC(C)C)C(=O)O,3.5 h,0.701 µmol/min,11.9 h,2.38 µmol/min,–,–,–,–,–,–,–
CC[C@H](C)[C@H](NC(=O)[C@H](Cc1ccc(O)cc1)NC(=O)[C@@H]1CCCN1C(=O)[C@H](CCCN=C(N)N)NC(=O)[C@H](CCCN=C(N)N)NC(C)=O)C(=O)N[C@@H](CC(C)C)C(=O)O,–,–,–,–,–,–,–,–,-0.71 °C,90 min,–
CC[C@@H](C)[C@H](NC(=O)[C@H](Cc1ccc(O)cc1)NC(=O)[C@@H]1CCCN1C(=O)[C@H](CCCNC(=N)N)NC(=O)[C@H](CCCNC(=N)N)N=[N+]=[N-])C(=O)N[C@@H](CC(C)C)C(=O)O,–,–,–,–,–,–,–,inactive,-1 °C,240 min,–
CC[C@@H](C)[C@H](NC(=O)[C@H](Cc1ccc(O)cc1)NC(=O)[C@@H]1CCCN1C(=O)[C@H](CCCNC(=N)N)NC(=O)CCCCNC(=N)N)C(=O)N[C@@H](CC(C)C)C(=O)O,1.45 h,2.17 µmol/min,3.83 h,5.74 µmol/min,0.00268 µM,0.00201 µM,0.00185 µM,–,-0.99 °C,120 min,–
CC(=O)N[C@@H](CCCCN)CC(=O)N[C@@H](CCCNC(=N)N)C(=O)N1CCC[C@H]1C(=O)N[C@@H](Cc1ccc(O)cc1)C(=O)N[C@H](C(=O)N[C@@H](CC(C)C)C(=O)O)C(C)(C)C (Ac-[β3hK]RPY[Tle]L-OH),–,–,–,–,–,–,–,–,-3.54 °C,150 min,–
CC(C)C[C@H](NC(=O)[C@@H](NC(=O)[C@H](Cc1c[nH]c2ccccc12)NC(=O)[C@@H]1CCCN1C(=O)[C@H](CCCCN)NC(=O)[C@@H](N)CCCNC(=N)N)C(C)(C)C)C(=O)O (H-RKPW[Tle]L-OH),–,–,–,–,–,–,–,–,-2.11 °C,120 min,–
CN[C@@H](CCCNC(=N)N)C(=O)N[C@@H](CCCCN)C(=O)N1CCC[C@H]1C(=O)N[C@@H](Cc1c[nH]c2ccccc12)C(=O)N[C@H](C(=O)N[C@@H](CC(C)C)C(=O)O)C(C)(C)C (H-[NMeR]KPW[Tle]L-OH),162 h,0.068 µmol/min,123 h,0.052 µmol/min,0.24 µM,0.18 µM,0.2 µM,–,-5.52 °C,270 min,0.095 µM
CN[C@@H](CCCCN)CC(=O)N[C@@H](CCCNC(=N)N)C(=O)N1CCC[C@H]1C(=O)N[C@@H](Cc1ccc(O)cc1)C(=O)N[C@H](C(=O)N[C@@H](CC(C)C)C(=O)O)C(C)(C)C (NMeβ3hLys-RPY[Tle]L-OH),–,–,–,–,–,–,–,–,-3.68 °C,180 min,–
COc1cccc(OC)c1-c1cc(C(=O)NC2(C(=O)O)C3CC4CC(C3)CC2C4)nn1-c1ccnc2cc(Cl)ccc12 (stereo not given) [REMINERTANT],–,–,–,–,0.00099 µM,–,–,–,–,–,–
